Experimental data reported in patent US6831101B2, “Tricyclic rantes receptor ligands” (Chemokine Therapeutics Corporation, priority 2001, dated 2004).

Assays:
[1] = tested on: CCR-1, -3, -4, and -5 receptors on THP-1 cells; assay: Competitive inhibition of 125I-RANTES binding to THP-1 cells; details: for % Inhibition (4 ug/ml) of 125I-RANTES binding: 4 ug/ml compound
Description: The binding studies were conducted using I^125 labeled RANTES as competitor and THP-1 cell lines.

[2] = tested on: murine Experimental Allergic Encephalomyelitis (EAE); assay: EAE mouse model of multiple sclerosis, clinical severity grading; type: in vivo; details: 5, 20 and 40 mg/kg/day for 19 days, SJL/J mice, compared to control, FIG. 3
Source text: Experimental autoimmune encephalomyelitis (EAE) is a CD4^+ Th1-mediated inflammatory demyelinating disease of the central nervous system (CNS) that serves as a model for multiple sclerosis and other autoimmune diseases. It has previously been disclosed that RANTES regulates acute and relapsing autoimmune encephalomyelitis, and that RANTES production in the central nervous system is correlated with relapsing EAE development. In this example, the EAE mouse model (SJL/J mice) for MS is used, in which the disease is induced with Bordetella pertussis toxin (Claude C. A. et. al., (1975) Journal of Immunology 114(5): 1537-1540 and Hosseimi, H. et. al., (2000) Neurology 54 (7): A 166, An abstract presented in April 2000 on “Inhibition of proteosome prevents clinical signs in an experimental model of Multiple Sclerosis”).
Data for FIG. 3 was collected in an experiment involving five groups of 10 mice each, as follows: group I, normal control (no drug, no disease); group II, EAE control (MBP but no drug); group III, drug at 5 mg/kg body weight; group IV, drug at 20 mg/kg body weight; group V, drug at 40 mg/kg body weight. Three different concentrations of neoabietic acid were given to animals for 19 days: 5, 20, and 40 mg/kg/day in a volume of 100 ul Cremophore EL (Sigma). […]

[3] = tested on: RANTES-induced [Ca2+]i mobilization in THP-1 cells; assay: Inhibition of RANTES-induced [Ca2+]i mobilization in THP-1 cells; type: cell-based
Description: A rapid, transient rise in the free cytosolic Ca^2+ concentration ([Ca^2+]i) is one of the events in neutrophil activation and is assumed to be involved in many of the subsequent cellular reactions. Both Ca^2+ release from intracellular stores and Ca^2+ influx from the extracellular space contribute to the rise in [Ca^2+]i. […] Fura-2,AM loaded THP-1 cells were incubated with CTCM189 for 60 min prior to induction of [Ca^2+]i mobilization by 10 nM RANTES.

Compound	% Inhibition (4 ug/ml) of 125I-RANTES binding [1] [%]	Effect on clinical scores in EAE [2]	IC50 ([1]; I125 labeled RANTES, THP-1 cells, data of FIG. 1, read-out: IC50, inhibition of binding of RANTES to THP-1 cells expressing CCR-1, -3, -4, and -5) [nM]	IC50 ([3]; Homo sapiens, Fura-2,AM loaded THP-1 cells, 60 min preincubation, 10 nM RANTES) [nM]	Inhibition of RANTES-induced [Ca2+]i mobilization at 5 uM ([3]; THP-1 cells, 5 uM compound)
C=C[C@]1(C)C=C2CC[C@@H]3[C@](C)(CCC[C@@]3(C)C(=O)O)[C@H]2CC1 [B, Sandaraco-pimaric acid]	36				
C=C[C@@]1(C)C=C2CC[C@@H]3[C@](C)(CCC[C@@]3(C)C(=O)O)[C@H]2CC1.N [C, Ammonium Pimarate]	48				
CC(C)=C1C=C2CC[C@@H]3[C@](C)(CCC[C@@]3(C)C(=O)O)[C@H]2CC1 [Compound 1, 8(14), 13(15)-abietadien-18-oic-acid]	68	beneficial effect on the clinical scores	253	27.2	almost complete inhibition
